Columns and labels:
APOL1 G2 [1] = molecular target: T1, APOL1 G2 (Homo sapiens, UniProt O14791, DEL388-389); test: Rescue of HEK293 cell death caused by overexpression of APOL1 (CellTiter-Glo luminescence), HEK293/T-REx APOL1 G2/clone #2; type: cell-based; details: reversal of cell death caused by overexpression of APOL1; geometric mean of at least 2 assay runs, † = single assay run (technical duplicate)
T1 construct: expressed in transfected cells; host or cells: HEK293 T-REx clonal lines: HEK T-REx/GCaMP6f/APOL1 G2 K6.3 in A1, HEK293/T-REx APOL1 G2/clone #2 in A2
T1 sequence (O14791 with tags, fused parts or gaps DEL388-389): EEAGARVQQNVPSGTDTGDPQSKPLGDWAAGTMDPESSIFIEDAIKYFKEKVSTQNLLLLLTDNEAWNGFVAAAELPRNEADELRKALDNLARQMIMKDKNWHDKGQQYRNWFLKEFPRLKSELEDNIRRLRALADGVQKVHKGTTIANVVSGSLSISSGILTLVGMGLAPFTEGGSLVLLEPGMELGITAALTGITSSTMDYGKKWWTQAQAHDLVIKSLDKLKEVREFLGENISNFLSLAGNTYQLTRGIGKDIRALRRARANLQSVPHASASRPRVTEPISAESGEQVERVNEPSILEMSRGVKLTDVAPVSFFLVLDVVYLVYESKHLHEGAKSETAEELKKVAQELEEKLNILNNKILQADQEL
Method: A HEK293 clonal cell line overexpressing APOL1 G2 (HEK293/T-REx APOL1 G2/clone #2) was maintained in 1×DMEM-GlutaMax (Gibco, 10569-010) media with 10% tetracycline-free FBS (Takara Bio USA, 631101), 5 μg/mL Blasticidin (Gibco, A1113903), and 100 μg/mL Zeocin (Invitrogen, R25001) in T75 flasks. In preparation for the assay, this media was aspirated and 2 mL of prewarmed TrypLE Express (Gibco, 12605-010) was added to a flask to detach cells. The flask was then incubated (humidified, 37° C. with 5% CO2) for 3-5 minutes. Afterwards, 8 mL of prewarmed cell assay media (lx DMEM-GlutaMax media with 10% tetracycline-free FBS) was added to the trypsinized cells. The suspension was gently mixed, and cells were counted using a Countess Cell Counting Chamber (Invitrogen). The suspension was diluted using cell assay media to generate a working stock solution (166,667 cells/mL). Using a MultiDrop Combi (Thermo Electron Corp), 30 μL (final cell density=5,000 cells/well) of the working stock solution was dispensed into each well of white 384-well assay ready plates (Nunc™, 164610) containing 6 ng/mL doxycycline, to induce APOL1 expression, and compound. All compounds were plated in a duplicate 8-point dilution series that consisted of 3-fold stepwise dilutions (0.5% DMSO final). Assay plates were incubated (humidified, 37° C. with 5% CO2) for 17 hours. After the incubation, the plates were equilibrated at room temperature for 1 hour. Next, 15 μl of CellTiter-Glo® reagent (Promega, G7570) was added to each well using a MultiDrop Combi. Plates were placed on an orbital shaker (500 rpm) for 5 minutes to induce cell lysis and then incubated at room temperature for 10 minutes. Luminescence was measured on an Envision plate reader. Collaborative Drug Discovery software was utilized for graphing data. Plots were generated using a four parameter logistic curve fit.
Table B2 below provides the results from this experiment. Unless otherwise specified, EC50 values are reported as the geometric mean of at least 2 assay runs on separate days. Each run represents the average of a technical replicate, where each compound was assayed twice in the same plate. A superscript t symbol indicates a value from the average of a technical replicate from a single assay run, where each compound was assayed twice in the same plate. Compounds in Table B2 are referred to by the corresponding Compound Number in Table 1, which is also referred to in the synthetic examples. When one or more of the numbered compounds are identified by stereochemistry (for example, (R)- or (S)—), the specific stereoisomer for which data is provided in Table B2 may be identified by the elution order of such compound as described in the synthetic examples. To illustrate, Compound 2 is the first-eluting enantiomer of step 4 of Example 1 and Compound 3 is the second-eluting enantiomer of step 4 of Example 1. Further, by way of illustration, Compound 27 is the first-eluting enantiomeric mixture in step 4 of Example 7 and Compound 28 is the second-eluting enantiomeric mixture in step 4 of Example 7. Then, Compound 27 is separated into Compound 29 (the first-eluting enantiomer) and Compound 30 (the second-eluting enantiomer) in Example 8, and Compound 28 is separated into Compound 31 (the first-eluting enantiomer) and Compound 32 (the second-eluting enantiomer) in Example 8. Absolute stereochemistry of such compounds may be identified by methods known in the art.
Rescue EC50 values reported in Table B2 below represent the half-maximal effective concentration for reversal of cell death caused by overexpression of APOL1.

APOL1 G2 [2] = molecular target: T1, APOL1 G2; test: APOL1 calcium transport inhibition assay (GCaMP6f calcium influx, FLIPR) in HEK T-REx/GCaMP6f/APOL1 G2 K6.3 cells; type: cell-based; details: inhibition of APOL1-mediated calcium influx; geometric mean of at least 2 assay runs, † = single assay run (technical duplicate)
Method: A HEK293 clonal cell line was generated to stably express GCaMP6f, a genetically encoded calcium indicator, and inducibly express APOL1 G2 (HEK T-REx/GCaMP6f/APOL1 G2 K6.3). Cells were maintained in the following standard complete medium: DMEM with 4.5 g/L glucose and sodium pyruvate (BioWhittaker, Lonza, BE12-614F), supplemented with 10% FBS Performance Plus (Gibco, 16000044), 1% penicillin-streptomycin (BioWhittaker, DE17-602E), 2 mM ultraglutamine-1 (BioWhittaker cat. BE 17-605/U1), 50 μg/mL Zeocin (InvivoGen, ant-zn), 2.5 μg/mL Blasticidin (InvivoGen, ant-bl-5), and 25 μg/mL Hygromycin (InvivoGen, ant-hg). Standard propagation conditions consisted of plating 9×10^6, 4×10^6, 2×10^6 cells in a T225 flasks to be processed after 2, 3, or 4 days, respectively.
A source plate was generated containing 20 serially diluted compounds in DMSO (duplicate 8-point dose response). Next, 0.8 μL of compounds were transferred from the source plate to a destination plate prefilled with 79.2 μL of Ca^2+ free Tyrode's buffer (130 mM NaCl, 5 mM KCl, 1 mM MgCl2, 5 mM NaHCO3, 20 mM HEPES at pH 7.4). The destination plate was placed on a plate shaker (5 seconds at 2000 rpm) to mix. […] All transfer and mixing steps were conducted with an CyBi®-Well dispenser.
Cells were split by gently washing with DPBS (Euroclone, ECB4004L), followed by a 5-minute incubation (humidified, 37° C. with 5% CO2) with trypsin-EDTA solution (Euroclone, ECB3052D). Detached cells were diluted with standard complete medium without selective agents, counted, and plated in a 384 MTP microplate (GR4332CPL, Twin Helix) (10,000 cells/well in 25 μl/well) using a MATRIX WellMate dispenser. Plates were placed into a humidified incubator (37° C. with 5% CO2) overnight. The following day, 20 μL of doxycycline (Sigma, D9891) at 20 ng/mL in standard complete medium was added to cells with a CyBi @Drop dispenser to induce APOL1 G2 expression. After a 6-hour incubation (humidified, 37° C. with 5% CO2), cells were washed 3 times with Ca^2+ free Tyrode's Buffer (130 mM NaCl, 5 mM KCl, 1 mM MgCl2, 5 mM NaHCO3, 20 mM HEPES at pH 7.4) using a BIOTEK Microplate washer, such that 10 μL of buffer remained in each well after the final wash. Assay plates were then stored at room temperature for 10 minutes. Next, 10 μL of diluted compounds were transferred to the assay plate from the 2× compound plate using a CyBi®-Well dispenser. Compound incubation was then carried out at room temperature for 10 minutes. The assay plate was transferred to the […] and 20 μL of 10 mM Ca^2+ (final concentration=5 mM) Tyrode's buffer was injected.
Table B1 below summarizes the data from this experiment. Unless otherwise specified, AC50 and values are reported as the geometric mean of at least 2 assay runs on separate days. Each run represents the average of a technical replicate, where each compound was assayed twice in the same plate. A superscript † symbol indicates a value from the average of a technical replicate from a single assay run, where each compound was assayed twice in the same plate.
The AC50 values in Table B1 below reflect the compound's ability to prevent calcium influx by inhibiting APOL1. […] Compounds in Table B1 are referred to by the corresponding Compound Number in Table 1, which is also referred to in the synthetic examples. When one or more of the numbered compounds are identified by stereochemistry (for example, (R)- or (S)—), the specific stereoisomer for which data is provided in Table B1 may be identified by the elution order of such compound as described in the synthetic examples. To illustrate, Compound 2 is the first-eluting enantiomer of step 4 of Example 1 and Compound 3 is the second-eluting enantiomer of step 4 of Example 1. Further, by way of illustration, Compound 27 is the first-eluting enantiomeric mixture in step 4 of Example 7 and Compound 28 is the second-eluting enantiomeric mixture in step 4 of Example 7. […]

Row | SMILES | AC50 (APOL1 G2 [2]) | EC50 (APOL1 G2 [1])
1 | C[C@@H]1CN(CCc2cccc(Cl)c2)C[C@H]1COc1ccc(N(C)S(C)(=O)=O)cc1 (single isomer, unassigned) [Compound 46, N-(4-(((3S,4S) or (3R,4R)-1-(3-chlorophenethyl)-4-methylpyrrolidin-3-yl)methoxy)phenyl)-N-methylmethanesulfonamide] | 90.2 nM | 21 nM
2 | CN(c1ccc(OC[C@@H](O)CN(CCc2cccc(Cl)c2)CC2CC2)cc1)S(C)(=O)=O [Compound 59, (S)—N-(4-(3-((3-chlorophenethyl)(cyclopropylmethyl)amino)-2-hydroxypropoxy)phenyl)-N-methylmethanesulfonamide] | 245 nM | 1060 nM
3 | CS(=O)(=O)c1ccc(OC[C@@H]2CCCN(CCc3cccc(Cl)c3)C2)cc1 [Compound 15, (R)-1-(3-chlorophenethyl)-3-((4-(methylsulfonyl)phenoxy)methyl)piperidine] | 287 nM | 567 nM
4 | CS(=O)(=O)c1ccc(CCC2CCCN(CCc3cccc(Cl)c3)C2)cc1 (single isomer, unassigned) [Compound 41, (R) or (S)-1-(3-chlorophenethyl)-3-(4-(methylsulfonyl)phenethyl)piperidine] | 2110 nM | 2820 nM
5 | C[C@@H]1CN(CCc2cccc(Cl)c2)C[C@@H]1COc1ccc(S(C)(=O)=O)cc1 (single isomer, unassigned) [Compound 151, (3R,4S or 3S, 4R)-1-[2-(3-chlorophenyl)-ethyl]-3-[(4-methanesulfon-ylphenoxy)meth-yl]-4-methyl-pyrrolidine] | 310 nM | 1340 nM
6 | CN(c1ccc(OC[C@H](O)CN2CCC(c3cccc(Cl)c3)C2)cc1)S(C)(=O)=O (single isomer, unassigned) [Compound 78, N-(4-((R)-3-((S) or (R)-3-(3-chlorophenyl)pyrro-lidin-1-yl)-2-hydroxypropoxy)phe-nyl)-N-methylmethanesulfon-amide] | 7010 nM | > 30000 nM
7 | C[C@@H]1CN(CCc2cc(C#N)cc(C#N)c2)C[C@H]1COc1ccc(S(C)(=O)=O)cc1 [Compound 145, 5-{2-[(3S,4S)-3-[(4-methane-sulfonylphen-oxy)methyl]-4-methylpyrroli-din-1-yl]ethyl}-benzene-1,3-dicarbonitrile] | 356 nM | 243 nM

Now from value to molecule, other results behind:

Row | AC50 (APOL1 G2 [2]) | SMILES | EC50 (APOL1 G2 [1])
8 | 3160 nM | CC(CN1C[C@@H](COc2ccc(S(C)(=O)=O)cc2)C[C@H]1C)c1cc(Cl)cc(C#N)c1 (single isomer, unassigned) [Compound 143, 3-chloro-5-[(2S or 2R)-1-[(2R, 4S)-4-[(4-meth-anesulfonyl-phenoxy)meth-yl]-2-methyl-pyrrolidin-1-yl]-propan-2-yl]-benzonitrile] | 349 nM
9 | 501 nM | COC(CN1CCC[C@H](COc2ccc(S(C)(=O)=O)cc2)C1)c1cccc(Cl)c1 (single isomer, unassigned) [Compound 24, (S)-1-((S)-2-(3-chlorophenyl)-2-methoxyethyl)-3-((4-(methylsulfonyl)phenoxy)methyl)piperidine or (S)-1-((R)-2-(3-chlorophenyl)-2-methoxyethyl)-3-((4-(methylsulfonyl)phenoxy)methyl)piperidine] | 334 nM
10 | 197 nM | Cc1cc(C#N)cc(CCN2C[C@@H](COc3ccc(S(C)(=O)=O)cc3)[C@H](C)C2)c1 [Compound 198, 3-{2-[(3S,4S)-3-[(4-methanesulfonylphenoxy)methyl]-4-methylpyrrolidin-1-yl]ethyl}-5-methylbenzonitrile] | 71.5 nM
11 | 1040 nM | C[C@@H]1CN(CC(O)c2cc(C#N)cc(C#N)c2)C[C@H]1COc1ccc(S(C)(=O)=O)cc1 (stereo partly drawn) [Compound 129, 5-{1-hydroxy-2-[(3S,4S)-3-[(4-methanesulfonylphenoxy)methyl]-4-methylpyrrolidin-1-yl]ethyl}benzene-1,3-dicarbonitrile] | 723 nM

— patent publication US20240316038A1, “APOL1 INHIBITORS AND METHODS OF USE” (Maze Therapeutics, Inc., priority 2021, published 2024)
